Experimental data from US20200172473A1, “DUAL MODULATORS OF FARNESOID X RECEPTOR AND SOLUBLE EPOXIDE HYDROLASE” (JOHANN WOLFGANG GOETHE-UNIVERSITÄT FRANKFURT AM MAIN, priority 2017, published 2020).
Several values for one entry are separate records, joined by “and”; a condition that tells them apart may be missing. Equal entries are not always repeated.

Assays:
recombinant human sEH = molecular target: T1, recombinant human sEH (Homo sapiens, UniProt P34913); experiment: fluorescence-based sEH activity assay with PHOME substrate; type: biochemical; conditions: for IC50: recombinant human sEH, PHOME, read-out: sEH inhibition IC50; for inhibition at 50 µM: read-out: sEH % inhibition at indicated conc.
T1 sequence (P34913 1-555): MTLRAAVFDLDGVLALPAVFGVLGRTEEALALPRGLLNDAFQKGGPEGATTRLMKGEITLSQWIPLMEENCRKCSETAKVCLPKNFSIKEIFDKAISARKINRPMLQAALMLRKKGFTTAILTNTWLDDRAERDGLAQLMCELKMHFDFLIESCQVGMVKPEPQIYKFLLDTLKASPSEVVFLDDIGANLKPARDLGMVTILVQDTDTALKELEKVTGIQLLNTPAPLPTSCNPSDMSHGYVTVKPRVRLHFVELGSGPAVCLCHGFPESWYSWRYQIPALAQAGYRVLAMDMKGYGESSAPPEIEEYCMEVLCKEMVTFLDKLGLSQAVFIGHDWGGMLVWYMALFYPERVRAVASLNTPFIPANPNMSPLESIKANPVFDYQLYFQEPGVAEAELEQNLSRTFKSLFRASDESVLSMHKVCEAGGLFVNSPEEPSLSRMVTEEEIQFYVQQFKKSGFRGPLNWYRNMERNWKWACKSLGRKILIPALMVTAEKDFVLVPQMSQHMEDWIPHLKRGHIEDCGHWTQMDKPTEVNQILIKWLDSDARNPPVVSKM
Description: (§1) This assay is based on a reporter construct containing a firefly luciferase under the control of the FXR response element from bile salt export protein (BSEP). FXR and its hetero dimer partner retinoid X receptor (RXR) as expression constructs under the control of a CMV promoter as well as a constitutively expressed renilla luciferase (SV40 promoter) for normalization and toxicity control were co-transfected. […] The sEH inhibitory potency of the test compounds was quantified in a fluorescence-based assay using recombinant enzyme and the fluorogenic sEH substrate PHOME^37 that is hydrolyzed to a fluorescent 6-methoxynaphtaldehyde by sEH.
The sEH inhibitory potency of the compounds were determined in a fluorescence-based 96-well sEH activity assay using recombinant human enzyme^50,51. Non-fluorescent PHOME (3-phenylcyano-(6-methoxy-2-naphthalenyl)methyl ester 2-oxiraneacetic acid; Cayman Chemicals) which can be hydrolyzed by the sEH to fluorescent 6-methoxynaphthaldehyde served as substrate. Recombinant human sEH (in Bis-Tris buffer, pH 7, with 0.1 mg/mL BSA containing a final concentration of 0.01% Triton-X 100) was pre-incubated with test compounds (in DMSO, final DMSO concentration: 1%) for 30 min at room temperature. […] A blank control (no protein and no compound) as well as a positive control (no compound) were executed. All experiments were conducted in triplicate and repeated in at least three independent experiments. For IC50 calculation, dose-response curves of increasing compound concentrations were recorded.

human FXR = molecular target: T2, human FXR (Homo sapiens, UniProt Q96RI1); experiment: full-length FXR reporter gene (transactivation) assay in HeLa cells; type: cell-based; conditions: for Emax: HeLa, read-out: FXR activation max. rel. activation (converted); for EC50: full-length FXR reporter gene assay, HeLa cells, read-out: FXR activation EC50; for FXR % activation at indicated conc.: 50 μM, relative to GW4064 (1c) at 3 μM = 100%
T2 construct: characterized in a full-length (fl) FXR reporter gene assay in HeLa cells; expressed in transfected cells; host or cells: HeLa
T2 sequence (Q96RI1 1-486): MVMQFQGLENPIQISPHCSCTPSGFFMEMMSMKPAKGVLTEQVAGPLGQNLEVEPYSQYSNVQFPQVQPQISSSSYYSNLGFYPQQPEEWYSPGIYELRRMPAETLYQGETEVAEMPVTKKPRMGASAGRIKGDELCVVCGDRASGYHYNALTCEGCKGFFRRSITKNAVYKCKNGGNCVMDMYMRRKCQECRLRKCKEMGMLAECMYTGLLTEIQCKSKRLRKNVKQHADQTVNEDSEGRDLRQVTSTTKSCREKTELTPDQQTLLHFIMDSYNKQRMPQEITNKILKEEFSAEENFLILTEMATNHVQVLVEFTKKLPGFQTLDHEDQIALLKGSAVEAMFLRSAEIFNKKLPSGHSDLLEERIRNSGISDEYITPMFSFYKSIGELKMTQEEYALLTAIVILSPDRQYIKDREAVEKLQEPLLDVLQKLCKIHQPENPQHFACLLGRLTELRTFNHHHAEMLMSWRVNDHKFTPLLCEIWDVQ
T2 sequence (P19793 1-462 partner): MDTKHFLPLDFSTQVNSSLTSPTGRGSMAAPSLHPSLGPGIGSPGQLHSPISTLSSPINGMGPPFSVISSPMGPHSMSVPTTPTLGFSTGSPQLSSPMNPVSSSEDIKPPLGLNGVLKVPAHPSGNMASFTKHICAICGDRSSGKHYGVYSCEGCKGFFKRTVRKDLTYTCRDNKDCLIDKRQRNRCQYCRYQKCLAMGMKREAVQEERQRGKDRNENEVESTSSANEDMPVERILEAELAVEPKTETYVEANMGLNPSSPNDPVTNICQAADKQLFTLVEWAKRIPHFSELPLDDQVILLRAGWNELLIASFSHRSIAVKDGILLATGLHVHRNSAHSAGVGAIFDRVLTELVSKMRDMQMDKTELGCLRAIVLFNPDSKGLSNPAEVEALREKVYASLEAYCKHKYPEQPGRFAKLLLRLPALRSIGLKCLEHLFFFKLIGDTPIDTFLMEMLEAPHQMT
Description: as §1
Plasmids: pcDNA3-hFXR contains the sequence of human FXR and was already published elsewhere.^47 pGL3 basic (Promega Corporation, Fitchburg, Wis., USA) was used as a reporter plasmid, with a shortened construct of the promotor of the bile salt export protein (BSEP) cloned into the SacI/NheI cleavage site in front of the luciferase gene.^48 pRL-V40 (Promega) was transfected as a control for normalization of transfection efficiency and cell growth. pSG5-hRXR was already published elsewhere as well.^49
Assay procedure: HeLa cells were grown in DMEM high glucose supplemented with 10% FCS, sodium pyruvate (1 mM), penicillin (100 U/mL) and streptomycin (100 μg/mL) at 37° C. and 5% CO2. […] Transient transfection of HeLa cells with BSEP-pGL3, pRL-SV40 and the expression plasmids pcDNA3-hFXR and pSG5-hRXR was carried out using calcium phosphate transfection method. […] Each concentration was tested in triplicate wells and each experiment was repeated independently at least three times. […] Luminescence was measured with a Tecan Infinite M200 luminometer (Tecan Deutschland GmbH, Crailsheim, Germany). Normalization of transfection efficiency and cell growth was done by division of firefly luciferase data by renilla luciferase data multiplied by 1000 resulting in relative light units (RLU). Fold activation was obtained by dividing the mean RLU of the tested compound at a respective concentration by the mean RLU of untreated control. […] EC50 and standard error of the mean values were calculated with the mean relative activation values of at least three independent experiments by SigmaPlot 10.0 (Systat Software GmbH, Erkrath, Germany) using a four parameter logistic regression.

Structure (SMILES)	Emax (human FXR)	other results
CC(C)(C)c1ccc(C(=O)NCc2ccc(N)cc2Cl)cc1 [69a, N-(4-Amino-2-chlorobenzyl)-4-(tert-butyl)benzamide]	29%	IC50 (recombinant human sEH): 40 ± 6 nM; EC50 (human FXR): 46 nM and 45 nM
Cc1ccc(C(=O)NCc2ccc(C(=O)O)cc2)cc1C [compound 10]	12%	inhibition at 50 µM (recombinant human sEH): 52 ± 1%
O=C(O)c1ccc(CNC(=O)c2cccc(-c3ccccc3)c2)cc1 [compound 12]	14%	
O=C(O)c1ccc(CNC(=O)c2ccc(-c3ccccc3)cc2)cc1 [compound 13]	24%	
O=C(O)c1ccc(CNC(=O)c2ccc(Cl)c(Cl)c2)cc1 [compound 14]		FXR % activation at indicated conc. (human FXR): inactive (50 μM)
COc1ccc(C(=O)NCc2ccc(C(=O)O)cc2)cc1OC [compound 15]	18%	inhibition at 50 µM (recombinant human sEH): 26 ± 2%
O=C(O)c1ccc(CNC(=O)c2ccc3ccccc3c2)cc1 [compound 17]	18%	inhibition at 50 µM (recombinant human sEH): 45 ± 1%
CC(C)(C)c1ccc(C(=O)NCc2ccc(C(=O)O)cc2)cc1 [compound 18]	13%	
COc1cc(C(=O)NCc2ccc(C(=O)O)cc2)ccc1C(C)(C)C [compound 20]	23%	
CC(C)(C)c1ccc(NC(=O)Nc2ccc(C(=O)O)cc2)cc1 [compound 21]	14%	
CC(C)(C)c1ccc(C(=O)NCc2cccc(C(=O)O)c2)cc1 [compound 22]	14%	inhibition at 50 µM (recombinant human sEH): 26 ± 2%
CC(C)(C)c1ccc(C(=O)NCc2ccc(CC(=O)O)cc2)cc1 [compound 23]	19%	
CC(C)(C)c1ccc(C(=O)NCc2ccc(CCC(=O)O)cc2)cc1 [compound 24]	16%	
CC(C)(C)c1ccc(C(=O)NCc2ccc(OCC(=O)O)cc2)cc1 [compound 25]	21%	
Cc1cc(CNC(=O)c2ccc(C(C)(C)C)cc2)ccc1C(=O)O [compound 26]	14%	inhibition at 50 µM (recombinant human sEH): 53 ± 1%
CC(C)(C)c1ccc(C(=O)NCc2ccc(C(=O)O)c(F)c2)cc1 [compound 27]	28%	
CC(C)(C)c1ccc(C(=O)NCc2ccc(C(=O)O)c(Cl)c2)cc1 [compound 28]	21%	inhibition at 50 µM (recombinant human sEH): 50 ± 1%
Cc1cc(C(=O)O)ccc1CNC(=O)c1ccc(C(C)(C)C)cc1 [compound 29]		FXR % activation at indicated conc. (human FXR): inactive (50 μM)
CC(C)(C)c1ccc(C(=O)NCc2ccc(C(=O)O)cc2F)cc1 [compound 30]	26%	
CC(C)(C)c1ccc(C(=O)NCc2ccc(C(=O)O)cc2Cl)cc1 [compound 31]	25%	
CC(NC(=O)c1ccc(C(C)(C)C)cc1)c1ccc(C(=O)O)cc1 (stereo not shown) [compound 32]	24%	inhibition at 50 µM (recombinant human sEH): 37 ± 1%
CC(C)(C)c1ccc(C(=O)NCc2ccc(CO)cc2)cc1 [compound 33]		FXR % activation at indicated conc. (human FXR): inactive (50 μM)

Structure (SMILES)	Emax (human FXR)	other results
CC(C)(C)c1ccc(C(=O)NCc2ccc(C=O)cc2)cc1 [compound 34]	22%	
CC(=O)c1ccc(CNC(=O)c2ccc(C(C)(C)C)cc2)cc1 [compound 35]	29%	
CC(C)(C)c1ccc(C(=O)NCc2ccc(C#N)cc2)cc1 [compound 36]		FXR % activation at indicated conc. (human FXR): inactive (50 μM)
CC(C)(C)c1ccc(C(=O)NCc2ccc(C(N)=O)cc2)cc1 [compound 37]	27%	
CNC(=O)c1ccc(CNC(=O)c2ccc(C(C)(C)C)cc2)cc1 [compound 38]	29%	
CN(C)C(=O)c1ccc(CNC(=O)c2ccc(C(C)(C)C)cc2)cc1 [compound 39]	17 ± 100%	
CC(=O)Nc1ccc(CNC(=O)c2ccc(C(C)(C)C)cc2)cc1 [compound 40]	31%	
CC(C)(C)c1ccc(C(=O)NCc2ccc(NC(=O)C(F)(F)F)cc2)cc1 [compound 41]	20%	
CC(C)(C)c1ccc(C(=O)NCc2ccc(N)cc2)cc1 [compound 42]		FXR % activation at indicated conc. (human FXR): inactive (50 μM)
CC(C)(C)c1ccc(C(=O)NCc2ccc(-c3nnn[nH]3)cc2)cc1 [compound 43]	23%	
CC(C)(C)c1ccc(C(=O)NCc2ccc(S(N)(=O)=O)cc2)cc1 [compound 44]	16%	
CC(=O)NS(=O)(=O)c1ccc(CNC(=O)c2ccc(C(C)(C)C)cc2)cc1 [compound 45]		FXR % activation at indicated conc. (human FXR): inactive (50 μM)
CC(C)(C)c1ccc(C(=O)NCc2ccc(NS(C)(=O)=O)cc2)cc1 [compound 46]	22%	
COc1ccc(CNC(=O)c2ccc(C(C)(C)C)cc2)cc1 [compound 47]	19%	
CCOc1ccc(CNC(=O)c2ccc(C(C)(C)C)cc2)cc1 [compound 48]	31%	
CC(C)Oc1ccc(CNC(=O)c2ccc(C(C)(C)C)cc2)cc1 [compound 49]	26%	
CC(C)(C)c1ccc(C(=O)NCc2ccc(OC(F)(F)F)cc2)cc1 [compound 50]	26%	
CSc1ccc(CNC(=O)c2ccc(C(C)(C)C)cc2)cc1 [compound 51]	33%	IC50 (recombinant human sEH): ~100 nM; EC50 (human FXR): ~100 nM
C[S+]([O-])c1ccc(CNC(=O)c2ccc(C(C)(C)C)cc2)cc1 (stereo not shown) [compound 52]	24%	
CC(C)(C)c1ccc(C(=O)NCc2ccc(S(C)(=O)=O)cc2)cc1 [compound 53]	34%	
CC(C)(C)c1ccc(C(=O)NCc2ccc(SC(F)(F)F)cc2)cc1 [compound 54]	19%	
CC(C)(C)c1ccc(C(=O)NCc2ccc(S(N)(=O)=O)cc2F)cc1 [compound 55]	34%	
